From publication PMC10682101, “In vitro pharmacological characterization of standard and new lysophosphatidic acid receptor antagonists using dynamic mass redistribution assay” (Frontiers in Pharmacology, 2023)
Where two headings read alike, the source gives them in different places.

Assays:
CHO wild-type cells = experiment: DMR assay in CHO wild-type cells (control); assay type: cell-based; details: for DMR response: CHO cells, compound 10 μM, mean ± s.e.m.
Procedure: Confluent cells were sub-cultured using trypsin/EDTA and used for experiments. Cells were seeded at a density of 20,000 cells/well in 30 µL into fibronectin-coated EnspireTM-LC 384-well plates and cultured for 20 h to form a confluent monolayer. On the day of the experiment, the cells were manually washed twice and maintained with assay buffer (HBSS with 20 mM HEPES, 0.01% BSA) for 90 min before DMR experiments. DMR was monitored in real time with a temporal resolution of 44 s throughout the assay. Experiments were performed at 37°C using an EnSight Multimode Plate Reader (PerkinElmer). The agonism protocol was as follows: before addition of the ligand, the DMR signal was measured for 5 min, and the average of the signals recorded during this period was set as the baseline (pm = 0). Compounds are added manually in a volume of 10 µL, and the triggered DMR signals were recorded for 60 min. The antagonism protocol was as follows: antagonists were added manually 25 min before reading the 5 min baseline. […] Responses were described in the form of picometer shift over time (seconds) following the subtraction of values from vehicle-treated wells. Maximum picometer (pm) modification (peak) and area under the curve (AUC) were used to determine the agonist response.

LPA2 receptor = target: LPA2 receptor; parameters: method as in Schiemann et al., 2012; details: inhibition of LPA effects on Ca2+ mobilization, cells expressing LPA2; ref Schiemann et al., 2012; cited from earlier work
human LPA1 receptor [1] = target: T1, human LPA1 receptor (Homo sapiens, UniProt Q92633); experiment: Calcium mobilization assay in CHOLPA1 cells; details: for Effect per se: 1 µM, data not shown; for Shift of the concentration–response curve to LPA: antagonism protocol (compound 35, compound 20 at 1 µM)
human LPA2 receptor [2] = target: T2, human LPA2 receptor (Homo sapiens, UniProt Q9HBW0); experiment: Calcium mobilization assay in CHOLPA2 cells; details: for Effect per se / Shift of the concentration–response curve to LPA: 1 µM; for Effect per se: data not shown; for Agonism Emax / Agonism pEC50: #inactive at 1 μM; for Shift of the concentration–response curve to LPA: antagonism protocol
human LPA1 receptor [3] = target: T1, human LPA1 receptor; experiment: Dynamic mass redistribution (DMR) assay in CHOLPA1 cells; details: for Shift of the concentration–response curve to LPA: antagonism protocol; for Agonism Emax: negative DMR signal; for DMR response: CHOLPA1 cells, compound 10 μM, mean ± s.e.m.
Procedure: All data were analyzed using GraphPad Prism 9.4 (La Jolla, CA, United States). Concentration–response curves were fitted using the four-parameter log-logistic equation. Data are expressed in the form mean ± s.e.m. across n experiments performed in duplicate. Agonist potency is expressed in the form pEC50, which is the negative logarithm to base 10 of the agonist molar concentration that produces 50% of the maximal possible effect of that agonist. […] In practice, equiactive concentrations of the agonist in the absence ([A]) and presence ([A’]) of a non-competitive antagonist ([B]) were compared in a double reciprocal plot describing a straight line, and pKB was derived from the equation: pKB = log[(slope—1)/[B]]. […] Maximal effect data were analyzed using the Student’s t-test or a one-way ANOVA followed by Dunnett’s post-hoc test.

human LPA2 receptor [4] = target: T2, human LPA2 receptor; experiment: Dynamic mass redistribution (DMR) assay in CHOLPA2 cells; details: for Shift of the concentration–response curve to LPA: antagonism protocol, 1 µM; for DMR response: CHOLPA2 cells, compound 10 μM, mean ± s.e.m.
Procedure: Confluent cells were sub-cultured using trypsin/EDTA and used for experiments. Cells were seeded at a density of 20,000 cells/well in 30 µL into fibronectin-coated EnspireTM-LC 384-well plates and cultured for 20 h to form a confluent monolayer. On the day of the experiment, the cells were manually washed twice and maintained with assay buffer (HBSS with 20 mM HEPES, 0.01% BSA) for 90 min before DMR experiments. DMR was monitored in real time with a temporal resolution of 44 s throughout the assay. Experiments were performed at 37°C using an EnSight Multimode Plate Reader (PerkinElmer). The agonism protocol was as follows: before addition of the ligand, the DMR signal was measured for 5 min, and the average of the signals recorded during this period was set as the baseline (pm = 0). Compounds are added manually in a volume of 10 µL, and the triggered DMR signals were recorded for 60 min. […] Responses were described in the form of picometer shift over time (seconds) following the subtraction of values from vehicle-treated wells. Maximum picometer (pm) modification (peak) and area under the curve (AUC) were used to determine the agonist response.
All data were analyzed using GraphPad Prism 9.4 (La Jolla, CA, United States). Concentration–response curves were fitted using the four-parameter log-logistic equation. Data are expressed in the form mean ± s.e.m. across n experiments performed in duplicate. […] In practice, equiactive concentrations of the agonist in the absence ([A]) and presence ([A’]) of a non-competitive antagonist ([B]) were compared in a double reciprocal plot describing a straight line, and pKB was derived from the equation: pKB = log[(slope—1)/[B]]. […] Maximal effect data were analyzed using the Student’s t-test or a one-way ANOVA followed by Dunnett’s post-hoc test.

LPA1/3 [5] = target: LPA1/3; parameters: method as in Ohta et al., 2003; details: LPA1/3 antagonist; ref Ohta et al., 2003; read-out: Ki estimated from binding experiments; cited from earlier work
LPA1/3 [6] = system: LPA1/3; parameters: method as in Ohta et al., 2003; details: ref Ohta et al., 2003; cited from earlier work
LPA1 receptor [7] = system: LPA1 receptor; parameters: method as in Ohta et al., 2003; details: GTPγS binding assay; ref Ohta et al., 2003; cited from earlier work
LPA1 receptor [8] = system: LPA1 receptor; parameters: method as in Shimizu and Nakayama, 2017; details: cAMP assay; ref Shimizu and Nakayama, 2017; cited from earlier work
LPA1 receptor [9] = system: LPA1 receptor; parameters: method as in Ohta et al., 2003; details: inositol phosphate test; ref Ohta et al., 2003; cited from earlier work
[10] = CHOLPA1, calcium mobilization, #inactive at 1 μM
[11] = CHOLPA1, DMR, peak, up to 10 µM (compound 35 up to 1 µM), °inactive at 10 μM
[12] = CHOLPA2, DMR, negative DMR signal, peak, up to 10 µM (compound 35 up to 1 µM), °inactive at 10 μM
[13] = CHOLPA1, calcium mobilization, *inactive at 0.1 µM

T2 sequence (Q9HBW0 whole entry): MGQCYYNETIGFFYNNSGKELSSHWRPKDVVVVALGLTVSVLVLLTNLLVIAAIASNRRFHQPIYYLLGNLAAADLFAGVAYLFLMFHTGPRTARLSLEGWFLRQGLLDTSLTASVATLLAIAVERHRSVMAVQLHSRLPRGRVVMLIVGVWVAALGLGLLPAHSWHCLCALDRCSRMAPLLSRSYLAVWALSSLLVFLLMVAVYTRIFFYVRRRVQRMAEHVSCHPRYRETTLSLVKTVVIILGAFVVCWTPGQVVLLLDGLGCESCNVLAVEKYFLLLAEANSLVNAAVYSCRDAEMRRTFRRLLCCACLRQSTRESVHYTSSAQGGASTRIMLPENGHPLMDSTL
T1 sequence (Q92633 whole entry): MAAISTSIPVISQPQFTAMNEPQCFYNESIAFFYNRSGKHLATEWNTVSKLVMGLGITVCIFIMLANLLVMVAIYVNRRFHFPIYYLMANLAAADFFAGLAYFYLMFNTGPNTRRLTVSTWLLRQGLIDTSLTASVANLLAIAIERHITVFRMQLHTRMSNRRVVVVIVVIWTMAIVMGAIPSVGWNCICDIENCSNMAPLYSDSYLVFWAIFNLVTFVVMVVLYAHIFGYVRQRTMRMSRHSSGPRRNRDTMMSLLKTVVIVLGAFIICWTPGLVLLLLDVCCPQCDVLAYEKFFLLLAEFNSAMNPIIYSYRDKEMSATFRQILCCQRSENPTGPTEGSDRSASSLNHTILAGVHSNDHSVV

Row | Structure (SMILES) | DMR response (CHO wild-type cells) [pm] | Effect per se (human LPA1 receptor [1]; CHOLPA1, calcium mobilization) | Shift of the concentration–response curve to LPA (human LPA1 receptor [1]; CHOLPA1, calcium mobilization) | Effect per se (human LPA2 receptor [2]; CHOLPA2, calcium mobilization) | Agonism Emax (human LPA2 receptor [2]; CHOLPA2, calcium mobilization) | Agonism pEC50 (human LPA2 receptor [2]; CHOLPA2, calcium mobilization) | Shift of the concentration–response curve to LPA (human LPA2 receptor [2]; CHOLPA2, calcium mobilization) | Shift of the concentration–response curve to LPA (human LPA1 receptor [3]; CHOLPA1, DMR, 1 µM) | Agonism Emax (human LPA1 receptor [3]; [11]) | DMR response (human LPA1 receptor [3]) [pm] | Shift of the concentration–response curve to LPA (human LPA2 receptor [4]; CHOLPA2, DMR) | Agonism Emax (human LPA2 receptor [4]; [12]) | DMR response (human LPA2 receptor [4]) [pm] | also measured
1 | O=C1C[C@@](O)(C(F)(F)F)c2c(-c3cccc(F)c3)n[nH]c2N1 [Compound 20] | −26 ± 8 | did not produce any effect per se | did not shift the concentration–response curve to LPA to the right | did not produce any effect per se | Inactive^# | Inactive^# | shifted the concentration–response curve to LPA to the right | did not shift the concentration–response curve to LPA to the right | Inactive° | −31 ± 17 | shifted the concentration–response curve to LPA to the right | −94 ± 6 pm | −119 ± 25 | DMR effect per se (CHO wild-type cells; CHO wild-type cells, 10 µM): failed to evoke effects per se; pIC50 (LPA2 receptor): > 6; Kb (human LPA1 receptor [1]; Antagonism pKB/pA2, CHOLPA1, calcium mobilization, LPA curve in absence and presence of 1 µM compound): > 1000 nM; Agonism Emax (human LPA1 receptor [1]; [10]): Inactive^#; Agonism pEC50 (human LPA1 receptor [1]; [10]): Inactive^#; Kb (human LPA2 receptor [2]): 56.2 nM; Effect on LPA maximal effect (human LPA2 receptor [2]; CHOLPA2, calcium mobilization, tested as antagonist): induced a reduction in LPA maximal effects; Agonism pEC50 (human LPA1 receptor [3]; CHOLPA1, DMR, negative DMR signal (inverse agonism), peak, up to 10 µM (compound 35 up to 1 µM), °inactive at 10 μM): Inactive°; DMR effect per se (human LPA1 receptor [3]; CHOLPA1, DMR, up to highest concentration tested (10 μM; compound 35 1 µM)): inactive up to 10 μM; EC50 (human LPA2 receptor [4]): 148 nM; Agonism Emax (human LPA2 receptor [4]; CHOLPA2, DMR, negative DMR signal, peak, up to 10 µM (compound 35 up to 1 µM), °inactive at 10 μM, listed as Merck compound 20): −94 pm; Time of maximum peak modification of the DMR response after administration (human LPA2 receptor [4]; CHOLPA2, DMR, slow onset): ~60 min
2 | Cc1noc(-c2ccc(CSCCC(=O)O)cc2)c1NC(=O)OC(C)c1ccccc1Cl (stereo not shown) [KI 16425] | −42 ± 7 | did not produce any effect per se | shifted the concentration–response curve to LPA to the right | did not produce any effect per se | Inactive^# | Inactive^# | shifted the concentration–response curve to LPA to the right | shifted the concentration–response curve to LPA to the right | −110 ± 17 pm | −101 ± 7 | shifted the concentration–response curve to LPA to the right | Crc incomplete | −95 ± 4 | Ki (LPA1/3 [5]): 670 nM; Selectivity for LPA1/3 vs. LPA2 (LPA1/3 [6]): 20 fold; Inverse agonism activity (LPA1 receptor [7]): slight degree of inverse agonism activity; Inverse agonism activity (LPA1 receptor [8]): slight degree of inverse agonism activity; Inverse agonism activity (LPA1 receptor [9]): this has not been replicated; Kb (human LPA1 receptor [1]; Antagonism pKB (pKB/pA2), CHOLPA1, calcium mobilization, Gaddum method, LPA curve in absence and presence of 0.1 µM antagonist): 3.09 nM; Agonism Emax (human LPA1 receptor [1]; [13]): Inactive*; Agonism pEC50 (human LPA1 receptor [1]; [13]): Inactive*; Antagonism pKB (pKB/pA2) (human LPA1 receptor [1]; CHOLPA1, calcium mobilization, Gaddum method, LPA curve in absence and presence of 0.1 µM antagonist): ~8.5; Effect on LPA maximal effect (human LPA1 receptor [1]; CHOLPA1, calcium mobilization, tested as antagonist): reduced the LPA maximal effect in a concentration-dependent manner; EC50 (human LPA1 receptor [3]; Agonism pEC50, CHOLPA1, DMR, negative DMR signal (inverse agonism), peak, up to 10 µM (compound 35 up to 1 µM), °inactive at 10 μM): 67.6 nM; Effect on LPA maximal effect (human LPA1 receptor [3]; CHOLPA1, DMR, tested as antagonist, 1 µM): without changing the maximal effect; DMR effect per se (human LPA2 receptor [4]; CHOLPA2, DMR, concentration–response up to highest concentration tested): inactive per se, or slightly active only at the higher concentration tested; Agonism pEC50 (human LPA2 receptor [4]; [12]): Crc incomplete
